Measurements published in patent US20230218710A1, “METHOD OF TREATING CORONAVIRUS INFECTIONS” (priority 2020, published 2023).
Structures can show the parent of a compound that is named as a salt. Square brackets hold non-standard residues; d marks the D form. Peptide text beside a SMILES is read from it. * marks the point of attachment. CH3O(CH2CH2O)11CH2CH2CO = COCCOCCOCCOCCOCCOCCOCCOCCOCCOCCOCCOCCC(=O)*

Legend:
Apelin Receptor (APJ) [1] = target: T1, Apelin Receptor (APJ) (Homo sapiens, UniProt P35414); assay: Activation of Ras in cultured cells overexpressing APJ; format: cell-based; conditions: 50 μM peptide, 1 min; 100 nM Pyr-Apelin-13 = positive control
T1 construct: host or cells: CHO-K1 AGTRL1 Gi cells
T1 sequence (P35414 1-380): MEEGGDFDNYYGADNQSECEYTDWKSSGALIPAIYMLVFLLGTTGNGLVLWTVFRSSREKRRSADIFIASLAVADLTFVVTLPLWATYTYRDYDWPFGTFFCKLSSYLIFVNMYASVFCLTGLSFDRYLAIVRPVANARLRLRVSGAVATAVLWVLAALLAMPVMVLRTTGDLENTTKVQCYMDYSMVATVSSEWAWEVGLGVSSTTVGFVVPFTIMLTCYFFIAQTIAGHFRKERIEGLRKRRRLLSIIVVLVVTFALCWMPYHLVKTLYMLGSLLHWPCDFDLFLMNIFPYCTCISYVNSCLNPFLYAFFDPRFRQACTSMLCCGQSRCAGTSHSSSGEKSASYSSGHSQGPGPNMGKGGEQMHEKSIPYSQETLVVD
Method: Peptides were initially prepared as 100× stocks in H2O. […] Following a 1 min incubation, the cells were placed on ice, the supernatant was removed, and washed twice with cold HBSS. The HBSS was removed and the cells were immediately lysed in 150 μl/well of lysis buffer included with Active Ras Detection kit (Cell Signaling Technology; Danvers, Mass.); lysis buffer was supplemented with 1 mM PMSF (Millipore-Sigma; Saint Louis, Mo.) and Halt Protease/Phosphatase Inhibitor Cocktail (Thermo-Fisher; Waltham, Mass.) prior to use. The wells were immediately scraped and lysates transferred to microfuge tubes. The samples were then placed on ice for 10 min. […] Visualization and quantification of Ras recovery (GTP-bound/active Ras) in samples were performed with Azure Biosystems C400 Imager and AzureSpot analysis software (Dublin, Calif.). […] Each data point represents the average of duplicate assays.

Apelin Receptor (APJ) [2] = target: T1, Apelin Receptor (APJ); assay: Phosphorylation of MEK1 in cultured cells overexpressing APJ; format: cell-based; conditions: 5 min, 100 nM Pyr-Apelin-13 = positive control, acetate salts
Method: Peptides were initially prepared as 100× stocks in H2O. […] Following a 5 min incubation, the supernatant was removed and the cells were placed on ice and washed twice with cold HBSS. The HBSS was removed and the cells were immediately lysed in 300 μl/well of 1× lysis buffer (CST 10× Lysis Buffer; Cell Signaling Technology; Danvers, Mass.); lysis buffer was supplemented with 1 mM PMSF (Millipore-Sigma; Saint Louis, Mo.) and Halt Protease/Phosphatase Inhibitor Cocktail (Thermo-Fisher; Waltham, Mass.) prior to use. The samples were then placed on ice for 10 min, the wells were scraped and lysates were centrifuged at 12,500 rpm for 10 min at 4° C., and p-MEK expression in each sample was measured using Phospho-MEK1 (Ser217/221) Sandwich ELISA kit according to manufacturer's instructions (Cell Signaling Technology; Danvers, Mass.). Absorbance was measured using a Cytation 3 plate reader at […] (BioTek; Winooski, Vt.). […] Each data point represents the average of duplicate assays.

Apelin Receptor (APJ) [3] = target: T1, Apelin Receptor (APJ); assay: Phosphorylation of ERK1/2 in cultured cells overexpressing APJ; format: cell-based; conditions: 5 min, 100 nM Pyr-Apelin-13 = positive control, acetate salts
Method: The effect of the peptides of the current invention on activation of Apelin Receptor (APJ)-mediated signaling can be assessed using an assay to monitor phospho-ERK/phospho-p44/42 MAPK (p-ERK1/2) levels in cultured cells overexpressing Apelin Receptor (APJ) such as CHO-K1, derived from Chinese hamster ovary. Peptides were initially prepared as 100× stocks in H2O. […] Following a 5 min incubation the supernatant was removed and the cells were placed on ice and washed twice with cold HBSS. The HBSS was removed and the cells were immediately lysed in 300 μl/well of 1× lysis buffer (CST 10× Lysis Buffer; Cell Signaling Technology; Danvers, Mass.); lysis buffer was supplemented with 1 mM PMSF (Millipore-Sigma; Saint Louis, Mo.) and Halt Protease/Phosphatase Inhibitor Cocktail (Thermo-Fisher; Waltham, Mass.) prior to use. The samples were then placed on ice for 10 min, wells were scraped and lysates transferred to microfuge tubes. The samples were centrifuged at 12,500 rpm for 10 min at 4° C. and p-ERK1/2 expression in each sample was measured using Phospho-p44/42 MAPK (Thr202/Tyr204) Sandwich ELISA kit according to manufacturer's instructions (Cell Signaling Technology; Danvers, Mass.). Absorbance was measured using a Cytation 3 plate reader at […] (BioTek; Winooski, Vt.). […] Each data point represents the average of duplicate assays.

in vitro = conditions: human, pooled human plasma
Method: The metabolic stability of the peptides can be assessed in vitro by incubation in plasma and determination of the amount of peptide remaining over time. Peptides (50 μM) were incubated in pooled plasma from mice, monkeys, and humans at 37° C. Samples were removed at intervals up to 3 hours and immediately analyzed for the concentration of intact peptide by LC/MS/MS. The percent of peptide remaining in plasma at each time point was calculated relative to the initial peak area.

human APJ = human APJ (Homo sapiens, UniProt P35414); assay: cell-based; conditions: CHO-K1, 1.5 h, read-out: Percent of Apelin-13 Control Activity
Chain of human APJ (P32121 whole entry partner, one chain of several): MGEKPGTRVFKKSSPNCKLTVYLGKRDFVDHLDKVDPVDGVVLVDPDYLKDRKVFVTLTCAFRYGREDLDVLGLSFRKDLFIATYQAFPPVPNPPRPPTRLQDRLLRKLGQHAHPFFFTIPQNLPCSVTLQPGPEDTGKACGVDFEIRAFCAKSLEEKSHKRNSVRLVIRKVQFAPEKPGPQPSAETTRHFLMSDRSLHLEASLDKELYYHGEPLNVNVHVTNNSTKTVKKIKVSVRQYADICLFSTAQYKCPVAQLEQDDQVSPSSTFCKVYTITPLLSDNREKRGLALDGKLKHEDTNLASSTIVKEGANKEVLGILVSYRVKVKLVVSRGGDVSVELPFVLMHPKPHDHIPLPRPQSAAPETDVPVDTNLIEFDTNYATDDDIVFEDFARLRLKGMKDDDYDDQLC
Method: The effect of the peptides on activation of Apelin Receptor (APJ) can be assessed using an assay to monitor β-Arrestin recruitment in cultured cells overexpressing APJ such as CHO-K1, derived from Chinese hamster ovary. β-Arrestin recruitment assays were performed by Eurofins-DiscoverX (Fremont, Calif.) using CHO-K1 AGTRL1 β-Arrestin cell line (co-expressing ProLink tagged human APJ and Enzyme Acceptor tagged β-Arrestin) and PathHunter detection kit. Peptides were initially prepared either as 10 mM stock in DMSO and used at a final concentration of 10 μM (0.1% DMSO). CHO-K1 AGTRL1 β-Arrestin cells were seed onto 384-well plates in standard medium. […] Following 90 min. incubation at 37° C., β-Arrestin recruitment in response to various treatments was quantified using a chemiluminescent complementation reporter assay to measure association of tagged human APJ (ProLink tag) and tagged β-Arrestin (Enzyme Acceptor tag).

Apelin Receptor (APJ) [4] = target: T1, Apelin Receptor (APJ); assay: cell-based; conditions: CHO-K1, 0.5 h, read-out: Percent of Pyr-Apelin-13 Control Activity
Method: Peptides were initially prepared as 30 mM stock in DMSO and diluted to 3 mM in H2O or directly as 3 mM stock in H2O; used at a final concentration of 10 μM (0-0.1% DMSO).

Row | Compound | remaining at 0.5 h, 50 μM (in vitro) [%] | Emax at 10 µM (human APJ) [%] | Emax at 10 µM (Apelin Receptor (APJ) [4]) [%] | also measured
1 | CSCC[C@H](NC(=O)CNC(=O)[C@H](CCSC)NC(=O)[C@H](CCSC)NC(=O)[C@H](CCCNC(=N)N)NC(=O)[C@@H](N)CCCNC(=N)N)C(=O)N[C@H](C(=O)N[C@@H](Cc1ccccc1)C(=O)N[C@@H](CCC(N)=O)C(=O)N[C@@H](CO)C(=O)N[C@@H](CC(C)C)C(=O)N[C@@H](CS)C(=O)NCC(=O)N[C@H](C)C(=O)O)C(C)C [SEQ ID NO: 15 Acetate salt] | – | – | – | GTP-Ras (% of Positive Control) (Apelin Receptor (APJ) [1]): 64.9%
2 | CSCC[C@H](NC(=O)CNC(=O)[C@H](CCSC)NC(=O)[C@H](CCSC)NC(=O)[C@H](CCCNC(=N)N)NC(=O)[C@@H](N)CCCNC(=N)N)C(=O)N[C@H](C(=O)N[C@@H](Cc1ccccc1)C(=O)N[C@@H](CCC(N)=O)C(=O)N[C@@H](CO)C(=O)N[C@@H](CC(C)C)C(=O)N[C@@H](CS)C(=O)NCC(=O)N[C@H](C)C(=O)O)C(C)C [SEQ ID NO: 15 HCl salt] | – | – | – | GTP-Ras (% of Positive Control) (Apelin Receptor (APJ) [1]): 90.8%
3 | CSCC[C@H](NC(=O)CNC(=O)[C@H](CCSC)NC(=O)[C@H](CCSC)NC(=O)[C@H](CCCNC(=N)N)NC(=O)[C@@H](N)CCCNC(=N)N)C(=O)N[C@H](C(=O)N[C@@H](Cc1ccccc1)C(=O)N[C@@H](CCC(N)=O)C(=O)N[C@@H](CO)C(=O)N[C@@H](CC(C)C)C(=O)N[C@@H](CS)C(=O)NCC(=O)N[C@H](C)C(=O)O)C(C)C [SEQ ID NO: 15] | – | – | – | pMEK1 (% of Positive Control) (Apelin Receptor (APJ) [2]; 2.0 μM peptide): 2.5%; pMEK1 (% of Positive Control) (Apelin Receptor (APJ) [2]; 10 μM peptide): 14.3%; pMEK1 (% of Positive Control) (Apelin Receptor (APJ) [2]; 50 μM peptide): 52.7%; pERK1/2 (% of Positive Control) (Apelin Receptor (APJ) [3]; 0.4 μM peptide): 1.9%; pERK1/2 (% of Positive Control) (Apelin Receptor (APJ) [3]; 2.0 μM peptide): 15.4%; pERK1/2 (% of Positive Control) (Apelin Receptor (APJ) [3]; 10 μM peptide): 44.4%; pERK1/2 (% of Positive Control) (Apelin Receptor (APJ) [3]; 50 μM peptide): 69.7%
4 | CSCC[C@H](NC(=O)CNC(=O)[C@H](CCSC)NC(=O)[C@H](CCSC)NC(=O)[C@H](CCCNC(=N)N)NC(=O)[C@@H](N)CCCNC(=N)N)C(=O)N[C@H](C(=O)N[C@@H](C)C(=O)N[C@@H](CCC(N)=O)C(=O)N[C@@H](CS)C(=O)N[C@@H](CC(C)C)C(=O)N[C@@H](CS)C(=O)NCC(=O)N[C@H](C)C(=O)O)C(C)C [compound 11] | 97.9 | 0 | 49 | –
5 | CSCC[C@H](NC(=O)CNC(=O)[C@H](CCSC)NC(=O)[C@H](CCSC)NC(=O)[C@H](CCCNC(=N)N)NC(=O)[C@@H](N)CCCNC(=N)N)C(=O)N[C@H](C(=O)N[C@@H](Cc1ccccc1)C(=O)N[C@@H](CCC(N)=O)C(=O)N[C@@H](CO)C(=O)N[C@@H](CC(C)C)C(=O)N[C@@H](CS)C(=O)NCC(=O)N[C@H](C)C(=O)O)C(C)C [compound 15] | 24.3 | 40 | 105 | –
6 | COCCOCCOCCOCCOCCOCCOCCOCCOCCOCCOCCOCCC(=O)N[C@@H](CCCCN)C(=O)N[C@@H](CCCNC(=N)N)C(=O)N[C@@H](CCCNC(=N)N)C(=O)N[C@@H](CCSC)C(=O)N[C@@H](CCSC)C(=O)NCC(=O)N[C@@H](CCSC)C(=O)N[C@H](C(=O)N[C@@H](Cc1ccccc1)C(=O)N[C@@H](CCC(N)=O)C(=O)N[C@@H](CS)C(=O)N[C@@H](CC(C)C)C(=O)N[C@@H](CS)C(=O)NCC(=O)N[C@H](C)C(=O)O)C(C)C [compound 20] | 75.3 | 1 | 37 | –
7 | COCCOCCOCCOCCOCCOCCOCCOCCOCCOCCOCCOCCC(=O)NCCCC[C@H](NC(=O)[C@@H](C)NC(=O)CNC(=O)[C@H](CS)NC(=O)[C@H](CC(C)C)NC(=O)[C@H](CS)NC(=O)[C@H](CCC(N)=O)NC(=O)[C@H](Cc1ccccc1)NC(=O)[C@@H](NC(=O)[C@H](CCSC)NC(=O)CNC(=O)[C@H](CCSC)NC(=O)[C@H](CCSC)NC(=O)[C@H](CCCNC(=N)N)NC(=O)[C@@H](N)CCCNC(=N)N)C(C)C)C(=O)O [compound 21] | 29.5 | 1 | 34 | –
8 | CSCC[C@H](NC(=O)CNC(=O)[C@H](CCSC)NC(=O)[C@H](CCSC)NC(=O)[C@H](CCCNC(=N)N)NC(=O)[C@@H](N)CCCNC(=N)N)C(=O)N[C@H](C(=O)N[C@@H](C)C(=O)N[C@@H](CCC(N)=O)C(=O)N[C@@H](CS)C(=O)N[C@@H](CC(C)C)C(=O)N[C@@H](CCC(=O)O)C(=O)NCC(=O)N[C@H](C)C(=O)O)C(C)C [compound 30] (H-RRMMGMVAQCLEG[dA]-OH; N-terminus and C-terminus assumed) | 14.9 | -1 | 31 | –
9 | CSCC[C@H](NC(=O)[C@H](CCCNC(=N)N)NC(=O)[C@@H](N)CCCNC(=N)N)C(=O)N[C@@H](CCC(=O)O)C(=O)N[C@H](C(=O)N[C@@H](Cc1ccc(O)cc1)C(=O)N[C@@H](CCC(N)=O)C(=O)N[C@@H](CS)C(=O)N[C@@H](CC(C)C)C(=O)N[C@@H](CS)C(=O)NCC(=O)N[C@H](C)C(=O)O)C(C)C [compound 31] (H-RRMEVYQCLCG[dA]-OH; N-terminus and C-terminus assumed) | 100 | 0 | 2 | –
10 | CC[C@H](C)[C@H](NC(=O)CNC(=O)[C@@H](NC(=O)[C@@H](NC(=O)[C@H](CCCNC(=N)N)NC(=O)[C@H](CCCNC(=N)N)NC(=O)[C@H](CCCCN)NC(=O)CCOCCOCCOCCOCCOCCOCCOCCOCCOCCOCCOCCOC)[C@@H](C)CC)[C@@H](C)CC)C(=O)N[C@H](C(=O)N[C@@H](Cc1ccccc1)C(=O)N[C@@H](CCC(N)=O)C(=O)N[C@@H](CS)C(=O)N[C@@H](CC(C)C)C(=O)N[C@@H](CS)C(=O)NCC(=O)N[C@H](C)C(=O)O)C(C)C [compound 42] ({CH3O(CH2CH2O)11CH2CH2CO}-KRRIIGIVFQCLCG[dA]-OH; N-terminus and C-terminus assumed) | – | 8 | 33 | –
11 | (PEG12)KRRLLGLVFQSLCG(dA) [SEQ ID NO: 37 Acetate salt] (KRRLLGLVFQSLCGA; N-terminal PEG12, C-terminal D-Ala, acetate salt; (1)..(1) PEG12; (15)..(15) D-Ala) | – | – | – | GTP-Ras (% of Positive Control) (Apelin Receptor (APJ) [1]): 79.2%
